The source of these data is patent publication US12102705B2, “Peptides having inhibitory activity on muscarinic receptor M3” (AZIENDE CHIMICHE RIUNITE ANGELINI FRANCESCO—A.C.R.A.F. …, priority 2018, dated 2024).

Peptide text beside a SMILES is read from it. * marks the point of attachment. Palmitoyl = CCCCCCCCCCCCCCCC(=O)*; Myristoyl = CCCCCCCCCCCCCC(=O)*

Holding throughout (type): cell-based
For assay [1], the target named is T1, human muscarinic receptor M3 (Homo sapiens, UniProt P20309).
T1 construct: expressed in transfected cells; cultured in Ham's F-12 medium
T1 sequence (P20309 whole entry): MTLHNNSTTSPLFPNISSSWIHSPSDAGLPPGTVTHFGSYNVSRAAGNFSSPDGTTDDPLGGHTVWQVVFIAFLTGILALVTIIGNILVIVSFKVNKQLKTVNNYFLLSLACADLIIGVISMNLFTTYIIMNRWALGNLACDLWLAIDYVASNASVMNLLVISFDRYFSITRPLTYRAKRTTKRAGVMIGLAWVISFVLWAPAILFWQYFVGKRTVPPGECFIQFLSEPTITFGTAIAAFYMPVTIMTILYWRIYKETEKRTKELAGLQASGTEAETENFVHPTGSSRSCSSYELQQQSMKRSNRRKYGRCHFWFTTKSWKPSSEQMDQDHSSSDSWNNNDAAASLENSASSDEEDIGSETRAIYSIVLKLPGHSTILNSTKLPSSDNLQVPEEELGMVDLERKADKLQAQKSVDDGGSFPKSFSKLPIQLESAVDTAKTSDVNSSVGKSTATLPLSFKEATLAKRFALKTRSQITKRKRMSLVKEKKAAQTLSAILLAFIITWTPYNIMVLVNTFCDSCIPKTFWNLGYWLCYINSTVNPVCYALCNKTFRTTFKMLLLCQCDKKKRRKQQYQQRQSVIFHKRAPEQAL
Briefly: Time-dependent inhibition of M3 activity, Fluo-4 NW calcium fluorescence. The following applies: peptide 50 μM, read-out: % Inhibition hM3 receptor activity. The protocol: Peptides of invention were designed to target the intracellular region of M3. Therefore, minimum time required to detect inhibitory effect on M3 activity was evaluated. For this purpose, inhibitory effect of peptides Seq. […] Epithelial stable cell line constitutively expressing human muscarinic receptor M3 was used to assess peptides activity. Cells were seeded in 96-well plates at 50% cell confluence in 100 μL of complete Ham's F-12 medium. After 24 hours, medium was removed and cells were incubated with 90 μL/well of Fluo-4 NW (Invitrogen) fluorescent calcium probe assay buffer containing probenecid, following manufacturer's instructions at 37° C. in a CO2 incubator. Peptides (50 μM), vehicle and atropine were incubated either with the probe (1 hour pre-incubation) or during fluorescence reading (direct effect). Afterwards, M3 activity was recorded for 20 cycles and direct effect peptides were added on cycle 3 after baseline assessment. Acetylcholine was added on cycle 13. Therefore, direct effect of peptides was monitored for 25 minutes. Inhibition values of M3 activity were calculated as percentages by considering maximum fluorescence corresponding to vehicle or non-treated cells acetylcholine-M3 activation and minimum as non-stimulated cells. Table E details inhibition values of M3 activity inhibition obtained for the peptides of invention.

Assay [2] has as its target T1, human muscarinic receptor M3. The assay can be described thus: Dose-response inhibitory effect on M3 activity (IC50). On the procedure: (§1) Epithelial stable cell line constitutively expressing human muscarinic receptor M3 was used to assess peptides activity. Cells were seeded in 96-well plates at 50% cell confluence in 100 μL of complete Ham's F-12 medium. After 24 hours, medium was removed and cells were incubated with 90 μL/well of a solution of the peptides of the invention at 100, 50 or 10 μM or DMSO as vehicle. Peptides were dissolved in Fluo-4 NW (Invitrogen) fluorescent calcium probe assay buffer containing Probenecid, following manufacturer's instructions for 50 min at 37° C. in a CO2 incubator. Afterwards, M3 activity was determined by reading the fluorescence in a FLUOstar Galaxy reader (BMG LabTechnologies) using 485 nm filter for excitation and 520 nm for emission, recording signal before and after M3 activation with 10 nM acetylcholine. Fluorescence measurements were normalized to acetylcholine maximum fluorescence signal in vehicle treated cells. Atropine (100 nM) was used as positive control for inhibition. Inhibition values of M3 activity were calculated as percentages by considering maximum fluorescence corresponding to acetylcholine-M3 activation and minimum as non-stimulated cells. Table D details inhibition values of M3 activity inhibition obtained for the peptides of invention.
Characterization of Seq. ID No. 1, 3-8 peptides efficiency was obtained by calculating half maximal inhibitory concentration (IC50). For this purpose, experimental procedure regarding cell culture and fluorescent calcium probe assay was followed as described on Example 2. Peptides were assessed at concentrations between 0.1 and 100 μM and incubated for 1 hour together with Fluo-4 NW probe. Afterwards, M3 activity was determined by reading the fluorescence in a FLUOstar Galaxy reader (BMG LabTechnologies) using 485 nm filter for excitation and 520 nm for emission, recording signal before and after M3 activation with acetylcholine. Fluorescence measurements were standardized with regard to the maximum fluorescence signal detected with acetylcholine stimulation in vehicle treated cells. Inhibition values of M3 activity were calculated as percentages by considering maximum fluorescence corresponding to acetylcholine-M3 activation and minimum as non-stimulated cells. Percentage inhibition data was fitted to a sigmoidal curve to obtain IC50. Table F details inhibition values for IC50

Assay [3] has the same target. Briefly: Inhibition of M3-acetylcholine activation, Fluo-4 NW calcium fluorescence. The note with it: 50 min incubation, 10 nM acetylcholine; for inhibition at 10 µM / inhibition at 50 µM / inhibition at 100 µM: 50 min. On the procedure: as §1
The mark [4] stands for this setting: 25 min, 25 minutes (direct effect).
The mark [5] stands for this setting: 60 minutes (1 hour pre-incubation).

`CCCCCCCCCCCCCCCC(=O)N[C@@H](Cc1c[nH]c2ccccc12)C(=O)N[C@@H](CCSC)C(=O)N[C@@H](CCCNC(=N)N)C(=O)N[C@@H](CC(C)C)C(N)=O` [Seq. ID No. 1 Palmitoyl] (Palmitoyl-WMRL-NH2): the inhibition (usually the drop in the measured response relative to a control, in per cent) at 50 µM in assay [1] (setting [4]) came to 25.1%; in assay [1] (setting [5]), 69.5%; in assay [3] (peptide 50 μM) it was 70.9%. In addition, half-maximal inhibition in assay [2] (IC50) was put at 38.3 µM. In addition, in assay [3] (peptide 10 μM), the inhibition at 10 µM came out at 15.4%. Further, in assay [3] (peptide 100 μM), the inhibition at 100 µM worked out at 95.6%.

As to `CCCCCCCCCCCCCCCC(=O)N[C@@H](Cc1c[nH]c2ccccc12)C(=O)N[C@@H](CCSC)C(=O)N[C@@H](CCCNC(=N)N)C(=O)N[C@@H](CC(C)C)C(=O)N[C@@H](CCCCN)C(=O)N[C@@H](C)C(N)=O` [Seq. ID No. 3 Palmitoyl] (Palmitoyl-WMRLKA-NH2), the inhibition at 50 µM in assay [1] (setting [4]) was determined as 16.4%; in assay [1] (setting [5]), 73%; in assay [3] (peptide 50 μM), 73.7%. Also, 12.7 µM corresponded to half-maximal inhibition in assay [2] (IC50). Besides, the inhibition at 10 µM in assay [3] (peptide 10 μM) amounted to 41%. The inhibition at 100 µM in assay [3] (peptide 100 μM) stood at 75.7%.

On to `CCCCCCCCCCCCCCCC(=O)N[C@@H](Cc1c[nH]c2ccccc12)C(=O)N[C@@H](CCSC)C(=O)N[C@@H](CC(N)=O)C(=O)N[C@@H](CC(C)C)C(=O)N[C@@H](CCCCN)C(=O)N[C@H](C(N)=O)[C@@H](C)O` [Seq. ID No. 4 Palmitoyl] (Palmitoyl-WMNLKT-NH2), for which the inhibition at 50 µM was found to be 11.5% in assay [1] (setting [4]), 69.1% in assay [1] (setting [5]) and 59.6% in assay [3] (peptide 50 μM). Moreover, the IC50 – broadly, the point on the concentration scale where inhibition reaches its midpoint – in assay [2] is 8 µM. Moreover, in assay [3] (peptide 10 μM), the inhibition at 10 µM amounted to 35.3%. For the same compound, the inhibition at 100 µM in assay [3] (peptide 100 μM) was determined as 60.6%.

Consider `CCCCCCCCCCCCCCCC(=O)N[C@@H](Cc1c[nH]c2ccccc12)C(=O)N[C@@H](CCSC)C(=O)N[C@@H](Cc1ccccc1)C(=O)N[C@@H](CC(C)C)C(=O)N[C@@H](CCCCN)C(N)=O` [Seq. ID No. 5 Palmitoyl] (Palmitoyl-WMFLK-NH2), for which the values for the inhibition at 50 µM in assay [1] (setting [4]), in assay [1] (setting [5]) and in assay [3] (peptide 50 μM) were -7.1%, 84.4% and 45.7%, respectively. The same compound yielded an IC50 in assay [2] of 61.1 µM. Further, in assay [3] (peptide 10 μM), the inhibition at 10 µM was 0%. The inhibition at 100 µM in assay [3] (peptide 100 μM) was determined as 80.6%.

`CCCCCCCCCCCCCC(=O)N[C@@H](CCCNC(=N)N)C(=O)N[C@@H](CCSC)C(=O)N[C@@H](Cc1ccc(O)cc1)C(=O)N[C@@H](CCCCN)C(=O)N[C@@H](CCSC)C(=O)N[C@@H](CCSC)C(=O)N[C@@H](C)C(=O)NCC(=O)N[C@@H](CCSC)C(=O)N[C@@H](Cc1ccc(O)cc1)C(=O)N[C@@H](CC(C)C)C(=O)N[C@@H](CCCNC(=N)N)C(N)=O` [Seq. ID No. 6 Myristoyl] (Myristoyl-RMYKMMAGMYLR-NH2): the inhibition at 50 µM in assay [1] (setting [4]) is -20.2%; in assay [1] (setting [5]), 54.7%; in assay [3] (peptide 50 μM) it was 56.4%. Also, the IC50 in assay [2] stood at 55.2 µM. Also, the inhibition at 10 µM in assay [3] (peptide 10 μM) amounted to 14.8%. For the same compound, the inhibition at 100 µM in assay [3] (peptide 100 μM) was 92.1%.

For `CCCCCCCCCCCCCC(=O)N[C@@H](CCCNC(=N)N)C(=O)N[C@H](C(=O)N[C@@H](CCSC)C(=O)N[C@@H](Cc1ccc(O)cc1)C(=O)N[C@@H](CCCCN)C(=O)N[C@@H](CCSC)C(=O)N[C@@H](CC(N)=O)C(=O)N[C@@H](CCCCN)C(=O)N[C@@H](CCCNC(=N)N)C(=O)N[C@@H](CC(=O)O)C(=O)N[C@@H](Cc1ccc(O)cc1)C(N)=O)C(C)C` [Seq. ID No. 7 Myristoyl] (Myristoyl-RVMYKMNKRDY-NH2), the inhibition at 50 µM in assay [1] (setting [4]) came to 16.4%; in assay [1] (setting [5]) it was 82.7%; in assay [3] (peptide 50 μM) it was 54.8%. The compound also registered an IC50 in assay [2] of 55 µM. Also, the inhibition at 10 µM in assay [3] (peptide 10 μM) came out at 15.9%. Moreover, the inhibition at 100 µM in assay [3] (peptide 100 μM) amounted to 92.4%.

`CCCCCCCCCCCCCC(=O)N[C@@H](CCCNC(=N)N)C(=O)N[C@H](C(=O)N[C@@H](CCSC)C(=O)N[C@@H](Cc1ccccc1)C(=O)N[C@@H](CCCCN)C(=O)N[C@@H](CCSC)C(=O)N[C@@H](Cc1ccccc1)C(=O)N[C@@H](CCCCN)C(=O)N[C@@H](CCCNC(=N)N)C(=O)N[C@@H](CC(=O)O)C(=O)N[C@@H](Cc1ccc(O)cc1)C(N)=O)C(C)C` [Seq. ID No. 8 Myristoyl] (Myristoyl-RVMFKMFKRDY-NH2): the inhibition at 50 µM was found to be 6.1% in assay [1] (setting [4]), 87.1% in assay [1] (setting [5]) and 71.7% in assay [3] (peptide 50 μM). This compound yielded an IC50 in assay [2] of 9.8 µM. The inhibition at 10 µM in assay [3] (peptide 10 μM) came to 42.5%. In addition, the inhibition at 100 µM in assay [3] (peptide 100 μM) is 93.8%.

Consider “Seq. ID No. 2 Acetyl: Nt-acetyl WMRLK, C terminus amidated (Ac-WMRLK-NH2)”, for which the “% M3 inhibition” value is 0.0% in assay [3] (peptide 10 μM), 9.1% in assay [3] (peptide 50 μM) and 24.6% in assay [3] (peptide 100 μM).

Turning to “Seq. ID No. 5 Acetyl: Nt-acetyl WMFLK, C terminus amidated (Ac-WMFLK-NH2)”, the “% M3 inhibition” value is reported as 3.9% in assay [3] (peptide 10 μM), 6.2% in assay [3] (peptide 50 μM) and 15.1% in assay [3] (peptide 100 μM).

Take “Seq. ID No. 6 Acetyl: Nt-acetyl RMYKMMAGMYLR, C terminus amidated (Ac-RMYKMMAGMYLR-NH2)”: the “% M3 inhibition” value is reported as 3.0% in assay [3] (peptide 10 μM), 26.4% in assay [3] (peptide 50 μM) and 32.5% in assay [3] (peptide 100 μM).

For “Seq. ID No. 6 Palmitoyl: Nt-palmitoyl RMYKMMAGMYLR, C terminus amidated (Palmitoyl-RMYKMMAGMYLR-NH2)”, the “% M3 inhibition” value in assay [3] (peptide 10 μM) stood at 34.5%.

For “Seq. ID No. 7 Acetyl: Nt-acetyl RVMYKMNKRDY, C terminus amidated (Ac-RVMYKMNKRDY-NH2)”, the “% M3 inhibition” value in assay [3] (peptide 10 μM) is listed as 8.6%; in assay [3] (peptide 50 μM), 8.3%; in assay [3] (peptide 100 μM), 20.6%.

For “Seq. ID No. 7 Palmitoyl: Nt-palmitoyl RVMYKMNKRDY, C terminus amidated (Palmitoyl-RVMYKMNKRDY-NH2)”, the “% M3 inhibition” value in assay [3] (peptide 10 μM) came out at 47.4%.

For “Seq. ID No. 8 Acetyl: Nt-acetyl RVMFKMFKRDY, C terminus amidated (Ac-RVMFKMFKRDY-NH2)”, the “% M3 inhibition” value is recorded as 21.5% in assay [3] (peptide 10 μM), 12.4% in assay [3] (peptide 50 μM) and 26.1% in assay [3] (peptide 100 μM).

Consider “Seq. ID No. 8 Palmitoyl: Nt-palmitoyl RVMFKMFKRDY, C terminus amidated (Palmitoyl-RVMFKMFKRDY-NH2)”, for which the “% M3 inhibition” value in assay [3] (peptide 10 μM) was found to be 32.7%.
